Reference: PMC7525318, “Identification of Six Flavonoids as Novel Cellular Antioxidants and Their Structure-Activity Relationship” (Oxidative Medicine and Cellular Longevity, 2020)
Blank lines part the entries; values can stand above or below the compound they belong to.

Experiments:
[1] = DPPH radical scavenging activity; conditions: 0.1 mM DPPH in methanol, 37°C, 30 min
Method: This assay was conducted as previously described by Wen et al. with some modifications. DPPH was freshly prepared in methanol at a concentration of 0.1 mM. The solution (20 μL) containing the tested compounds with different concentrations was added into the DPPH solution (180 μL) in the 96-well plates. […] The IC50 value was calculated on the scavenging activity against DPPH radical.

HepG2 cells [2] = assay: Cellular antioxidant activity (CAA) assay; assay type: cell-based; conditions: DCFH-DA 25 μM, ABAP 600 μM
Method: The CAA assay was tested as described previously. 6 × 10^4 cells/well of HepG2 cells were seeded at a 96-well microplate with 100 μL of growth medium/well. […] Then, the cells were washed with PBS and treated with 100 μL of 600 μM ABAP (dissolved in HBSS), and the 96-well microplate was immediately placed into an Infinite SpectraMax i3x Multi-Mode Detection plate-reader at 37°C. […]

[3] = test system: superoxide dismutase (SOD); assay: Intracellular SOD activity in ABAP-treated HepG2 cells; assay type: cell-based; conditions: then ABAP
Method: (§1) HepG2 cells were seeded (1 × 10^6 cells/well) in six-well plates. After incubation for 24 h, the cells were pretreated with different concentration samples. Medium was washed by PBS and treated with 600 μM ABAP. The cells were collected and treated with cell lysis buffer (20 mM Tris at pH 7.5, 150 mM NaCl and 1% Triton X-100) at 4°C. The lysed cells were used to measure the intracellular activities of SOD, CAT, and GSH-Px by kits according to the manufacturer instructions (Wen 2015). Cells without sample and ABAP treatment were used as positive control (PC), while cells treated with ABAP but not sample were used as negative control (NC).

catalase (CAT) = assay: Intracellular CAT activity in ABAP-treated HepG2 cells; assay type: cell-based; conditions: for CAT activity of PC value: % of PC value; for increase of CAT activity: HepG2, pretreatment before ABAP
Method: as §1

[4] = test system: glutathione peroxidase (GSH-Px); assay: Intracellular GSH-Px activity in ABAP-treated HepG2 cells; assay type: cell-based; conditions: for GSH-Px activity of PC value: % of PC value; for increase of GSH-Px activity: HepG2, pretreatment before ABAP
Method: as §1

HepG2 cells [5] = assay: Cytotoxicity assay (CCK-8); assay type: cell-based
Method: The cytotoxicity and antiproliferative activity assays were performed by using the CCK-8 assay kit. Briefly, HepG2 cells were cultured at a density of 4 × 10^4 cells/well or 2.5 × 10^4 cells/well in a 96-well microplate with growth medium. After incubation at 37°C, the growth medium is treated with 100 μL of growth medium containing different concentrations of tested compounds for 24 h or 72 h. The wells having growth medium without the tested compound served as control. Then, the cells were incubated with 10 μL/well CCK-8 solutions for 2 h at 37°C. The absorbance values of each well were measured at 450 nm using a microplate reader (SpectraMax i3x, ForteBio Analytics Co., Ltd., USA). The cytotoxic activity and antiproliferative effects of the tested compound was calculated as(1) Cytotoxicity %=1−As/Ac×100%, (2) Cell proliferation %=As/Ac×100%, where As is the absorbance of the well with compound; Ac is the absorbance of control.

[6] = Oxygen radical antioxidant capacity (ORAC) assay; conditions: Trolox equivalents; AAPH, fluorescein
Method: The ORAC assay was evaluated as previously described by Cao et al. with some modifications. 50 μL of samples or Trolox with different concentrations and the fluorescein solution was added to a 96-well microplate, which was incubated at 37°C for 10 min. […] The ORAC values were calculated by the regression equation between the Trolox concentration and the net area under the curve (expressed as μmol Trolox eq/μmol sample).

[7] = HepG2, pretreated at a higher concentration
[8] = HepG2, first of three concentrations (not given)
[9] = HepG2, second of three concentrations (not given)
[10] = HepG2, third of three concentrations (not given)
[11] = HepG2, pretreated with 5 μM, then ABAP
[12] = HepG2, pretreated with 10 μM, then ABAP
[13] = HepG2, pretreated with 15 μM, then ABAP
[14] = HepG2, pretreated with 20 μM, then ABAP
[15] = HepG2, pretreated with 30 μM, then ABAP

IC50 [1]: > 200 µM | EC50 (HepG2 cells [2]; Homo sapiens): 139 ± 5.21 µM
Compound: O=c1cc(-c2ccc(O)c(O)c2)oc2cc(O)c([C@@H]3O[C@H](CO)[C@@H](O)[C@H](O)[C@H]3O)c(O)c12 [compound 32, Isoorientin]
SOD activity compared to NC cells [3, 7]: significant increase | SOD activity compared to NC cells ([3]; HepG2, pretreated with 40 μM): insignificant increase | CAT activity of PC value (catalase (CAT); [8]): 44.93 ± 2.23% | increase of CAT activity (catalase (CAT)): dose-dependent manner | CAT activity of PC value (catalase (CAT); [9]): 52.68 ± 3.42% | CAT activity of PC value (catalase (CAT); [10]): 68.35 ± 3.72% | GSH-Px activity of PC value [4, 8]: 47.79 ± 3.28% | increase of GSH-Px activity [4]: dose-dependent manner | GSH-Px activity of PC value [4, 9]: 55.99 ± 3.57% | GSH-Px activity of PC value [4, 10]: 71.20 ± 4.28% | cytotoxicity (HepG2 cells [5]; range of 10-160 μM): no significant effects

IC50 [1]: 96.03 ± 0.13 µM | EC50 (HepG2 cells [2]; Homo sapiens): > 200 µM
Compound: Oc1cc(O)c2c(c1)O[C@H](c1ccc(O)c(O)c1)[C@H](O)C2 [compound 58, Epicatechin]
ORAC values [6]: 4.83 ± 0.13 μmol TE/μmol

IC50 [1]: 73.2 ± 0.75 µM | EC50 (HepG2 cells [2]; Homo sapiens): 18.6 ± 0.61 µM
Compound: O=c1cc(-c2ccc(O)c(O)c2)oc2cc(O)cc(O)c12 [compound 23, Luteolin]
ORAC values [6]: 4.27 ± 0.02 μmol TE/μmol

Compound: COc1cc(-c2[o+]c3cc(O)cc(O)c3cc2O[C@@H]2O[C@H](CO)[C@@H](O)[C@H](O)[C@H]2O)cc(OC)c1O.[Cl-] [compound 56, Oenin chloride]
IC50 [1]: > 200 µM | ORAC values [6]: 4.78 ± 0.15 μmol TE/μmol | EC50 (HepG2 cells [2]): > 200 µM

IC50 [1]: 59.6 ± 3.12 µM | EC50 (HepG2 cells [2]; Homo sapiens): > 200 µM
Compound: O=C1c2c(O)cc(O)cc2OC(c2ccc(O)c(O)c2)C1O (centres unmarked) [compound 39, Taxifolin]
ORAC values [6]: 5.26 ± 0.04 μmol TE/μmol

IC50 [1]: 45.1 ± 2.12 µM | EC50 (HepG2 cells [2]; Homo sapiens): > 200 µM
Compound: O=c1c(O[C@@H]2O[C@H](CO)[C@H](O)[C@H](O)[C@H]2O)c(-c2ccc(O)cc2)oc2cc(O)cc(O)c12 [compound 11, Trifolin]
ORAC values [6]: 2.06 ± 0.01 μmol TE/μmol

IC50 [1]: > 200 µM | EC50 (HepG2 cells [2]; Homo sapiens): > 200 µM
Compound: O=C1c2c(O)cc(O)cc2O[C@H](c2cc(O)c(O)c(O)c2)[C@H]1O [compound 38, Dihydromyricetin]
ORAC values [6]: 5.25 ± 0.02 μmol TE/μmol

Compound: COc1ccc([C@@H]2CC(=O)c3c(O)cc(O[C@@H]4O[C@H](CO[C@@H]5O[C@@H](C)[C@H](O)[C@@H](O)[C@H]5O)[C@@H](O)[C@H](O)[C@H]4O)cc3O2)cc1O [compound 44, Hesperidin]
IC50 [1]: > 200 µM | ORAC values [6]: 6.52 ± 0.15 μmol TE/μmol | EC50 (HepG2 cells [2]): > 200 µM

IC50 [1]: > 200 µM | EC50 (HepG2 cells [2]; Homo sapiens): > 200 µM
Compound: COc1ccc(-c2cc(=O)c3c(O)cc(O)cc3o2)cc1O [compound 36, Diosmetin]
ORAC values [6]: 5.02 ± 0.14 μmol TE/μmol

IC50 [1]: 25.2 ± 0.62 µM | EC50 (HepG2 cells [2]; Homo sapiens): > 200 µM
Compound: O=c1c(O)c(-c2ccc(O)c(O)c2)oc2cc(O)ccc12 [compound 35, Fisetin]
ORAC values [6]: 5.36 ± 0.21 μmol TE/μmol

Compound: O=c1c(O)c(-c2ccc(O)cc2)oc2cc(OC3O[C@H](CO)[C@@H](O)[C@H](O)[C@H]3O)cc(O)c12 (some centres unmarked) [compound 13, Kaempferol-7-O-glucopyranoside]
IC50 [1]: > 200 µM | EC50 (HepG2 cells [2]; Homo sapiens): 57.8 ± 3.12 µM | SOD activity compared to NC cells [3, 7]: significant increase | SOD activity compared to NC cells ([3]; HepG2, pretreated with 20 μM): insignificant increase | increase of CAT activity (catalase (CAT)): dose-dependent manner | increase of GSH-Px activity [4]: dose-dependent manner | cytotoxicity (HepG2 cells [5]; at higher concentration): slight cytotoxicity | cytotoxicity (HepG2 cells [5]; range of 10-160 μM): no significant effects

Compound: O=c1c(O)c(-c2ccc(O)cc2)oc2c(O)c(O)cc(O)c12 [compound 8, Herbacetin]
IC50 [1]: > 200 µM | ORAC values [6]: 5.05 ± 0.05 μmol TE/μmol | EC50 (HepG2 cells [2]; Homo sapiens): 27.1 ± 2.47 µM | SOD activity compared to NC cells [3, 7]: significant increase | SOD activity compared to NC cells ([3]; HepG2, pretreated with 15 μM): insignificant increase | CAT activity of PC value (catalase (CAT); [8]): 50.86 ± 2.23% | increase of CAT activity (catalase (CAT)): dose-dependent manner | CAT activity of PC value (catalase (CAT); [9]): 67.01 ± 5.32% | CAT activity of PC value (catalase (CAT); [10]): 80.86 ± 5.21% | GSH-Px activity of PC value [4, 8]: 54.02 ± 3.02% | increase of GSH-Px activity [4]: dose-dependent manner | GSH-Px activity of PC value [4, 9]: 63.46 ± 2.51% | GSH-Px activity of PC value [4, 10]: 82.02 ± 5.35% | cytotoxicity (HepG2 cells [5]; range of 10-160 μM): no significant effects

IC50 [1]: 21.5 ± 1.9 µM | EC50 (HepG2 cells [2]; Homo sapiens): 8.77 ± 0.09 µM
Compound: O=c1c(O)c(-c2ccc(O)c(O)c2)oc2cc(O)cc(O)c12 [compound 7, Quercetin, reference compound]
ORAC values [6]: 5.52 ± 0.04 μmol TE/μmol

IC50 [1]: 36.8 ± 4.26 µM | EC50 (HepG2 cells [2]; Homo sapiens): 24.91 ± 0.12 µM
Compound: Oc1cc(O)c2cc(O)c(-c3cc(O)c(O)c(O)c3)[o+]c2c1 [compound 52, Delphinidin chloride]
ORAC values [6]: 5.02 ± 0.02 μmol TE/μmol

IC50 [1]: > 200 µM | EC50 (HepG2 cells [2]; Homo sapiens): > 200 µM
Compound: COc1cc(-c2[o+]c3cc(O)cc(OC4OC(CO)C(O)C(O)C4O)c3cc2OC2OC(CO)C(O)C(O)C2O)cc(OC)c1O (centres unmarked) [compound 57, Malvin]
ORAC values [6]: 4.32 ± 0.19 μmol TE/μmol

Compound: Rhamnetin [compound 2]
IC50 [1]: 34 ± 0.61 µM | ORAC values [6]: 4.72 ± 0.02 μmol TE/μmol | EC50 (HepG2 cells [2]): 10.8 ± 0.34 µM | SOD activity compared to NC cells [3, 7]: significant increase | SOD activity compared to NC cells ([3]; HepG2, pretreated with 5 μM): insignificant increase | CAT activity of PC value (catalase (CAT); [11]): 56.58 ± 3.25% | CAT activity of PC value (catalase (CAT); [12]): 74.98 ± 4.25% | CAT activity of PC value (catalase (CAT); [13]): 83.10 ± 4.54% | increase of CAT activity (catalase (CAT)): dose-dependent manner | GSH-Px activity of PC value [4, 11]: 65.09 ± 3.21% | GSH-Px activity of PC value [4, 12]: 71.88 ± 4.23% | GSH-Px activity of PC value [4, 13]: 81.24 ± 5.65% | increase of GSH-Px activity [4]: dose-dependent manner | cytotoxicity (HepG2 cells [5]; range of 10-160 μM): no significant effects

IC50 [1]: 71.7 µM | EC50 (HepG2 cells [2]; Homo sapiens): 45.1 ± 2.12 µM
Compound: O=c1c(O[C@@H]2O[C@@H](CO)[C@H](O)[C@H]2O)c(-c2ccc(O)c(O)c2)oc2cc(O)cc(O)c12 [compound 10, Avicularin]
SOD activity compared to NC cells [3, 7]: significant increase | SOD activity compared to NC cells ([3]; HepG2, pretreated with 10 μM): insignificant increase | CAT activity of PC value (catalase (CAT); [12]): 51.90 ± 3.21% | CAT activity of PC value (catalase (CAT); [14]): 68.95 ± 4.22% | CAT activity of PC value (catalase (CAT); [15]): 81.82 ± 4.25% | increase of CAT activity (catalase (CAT)): dose-dependent manner | GSH-Px activity of PC value [4, 12]: 54.37 ± 3.05% | GSH-Px activity of PC value [4, 14]: 68.21 ± 4.25% | GSH-Px activity of PC value [4, 15]: 81.82 ± 5.52% | increase of GSH-Px activity [4]: dose-dependent manner | cytotoxicity (HepG2 cells [5]; range of 10-160 μM): no significant effects

IC50 [1]: > 200 µM | EC50 (HepG2 cells [2]; Homo sapiens): > 200 µM
Compound: O=C(CCc1ccc(O)cc1)c1c(O)cc(O)cc1O[C@@H]1O[C@H](CO)[C@@H](O)[C@H](O)[C@H]1O [compound 49, Phlorizin]
ORAC values [6]: 6.43 ± 0.14 μmol TE/μmol

IC50 [1]: 130 ± 5.55 µM | EC50 (HepG2 cells [2]; Homo sapiens): > 200 µM
Compound: Oc1cc(O)c2c(c1)OC(c1ccc(O)c(O)c1)C(O)C2 (centres unmarked) [compound 59, Catechin]
ORAC values [6]: 4.93 ± 0.02 μmol TE/μmol
